From PMC10580319, “Quantitative Imaging of the Action of vCPP2319, an Antimicrobial Peptide from a Viral Scaffold, against Staphylococcus aureus Biofilms of a Clinical Isolate” (ACS Infectious Diseases, 2023)
Where no end group is shown, it is not given here.

Columns and labels:
[1] = Dynamic light scattering, self-assembly; type: physicochemical; details: DLS, in PBS, preincubated 4 h at 25 °C, 50, 100, 200 and 500 μM, two independent experiments (Figure S2)
Description: DLS experiments were carried out on a Zetasizer Nano ZS instrument from Malvern (Worcestershire, UK). vCPP2319, in PBS, was preincubated for 4 h, at 25 °C, at different concentrations (50, 100, 200, and 500 μM). The Z-average hydrodynamic diameter was measured using DLS in particle size analysis mode. For each experiment, a single measurement, corresponding to an autocorrelation curve averaged from a minimum of 20 runs, was performed. All measurements were performed at 25 °C. Data were obtained from two independent experiments.

[2] = system: S. aureus ATCC 6538 biofilms; test: Resazurin reduction fluorometric assay on 24 h-preformed biofilms; type: cell-based, Staphylococcus aureus; details: 0.78 to 50 μM, 4 h and 24 h treatment, dose-dependent
Description: (§1) The effect of vCPP2319 on 24 h-preformed S. aureus biofilms was evaluated using three distinct methods, as previously described:[24] the metabolic activity and viability of biofilm-embedded cells was determined using a resazurin reduction fluorometric assay and a colony count assay, respectively. The total biofilm biomass was quantified by using a crystal violet assay.
(§2) Resazurin, the active compound in alamarBlue reagent (Invitrogen), is a blue dye that can be reduced to a pink fluorescent intermediate, resorufin, as a result of cells metabolic activity.[48]S. aureus suspensions were prepared to a final concentration of 1 × 10^6 CFU/mL and incubated in a sterile 96-well microtiter black flat-bottomed polystyrene plate (Corning) for 24 h at 37 °C. […] After washing the biofilms twice with MHB, alamarBlue reagent was added at a final concentration 10% (v/v in MHB) to each sample and its reduction was monitored by measuring the fluorescence intensity (excitation and emission wavelengths were 530 and 590 nm, respectively) of the samples every 5 min during 2 h at 37 °C, in an infinite M200 microplate reader (Tecan). […] The percentage of resazurin reduction was determined relatively to the control, after blank (10% (v/v) alamarBlue reagent in MHB) correction.

[3] = system: S. aureus clinical isolate biofilms; test: as above; type: cell-based, Staphylococcus aureus; details: 4 h treatment, only at 25 and 50 μM
Description: as §1, §2

[4] = system: S. aureus ATCC 6538 biofilms; test: Crystal violet binding assay, biofilm biomass; type: cell-based, Staphylococcus aureus; details: 24 h-preformed biofilms, treatment for 4 or 24 h
Description: as §1
(§3) Crystal violet is a basic dye that binds to negatively charged molecules, such as those in biofilms EPS matrix and on bacterial membrane surface.[51]S. aureus suspensions at 1 × 10^6 CFU/mL were incubated in a 96-well microtiter clear flat-bottomed polystyrene plate (Corning) for 24 h at 37 °C. […] (EC 3.2.1.1), ranging from 0.0078 to 0.5 mg/mL, for 4 h at 37 °C. Untreated biofilms were used as a control. Biofilms were washed twice with MHB and incubated with 0.25% (v/v in sterile Milli-Q water) crystal violet (Sigma-Aldrich) for 30 min at room temperature. After each sample was washed three times with MHB, crystal violet was solubilized with 95% (v/v) ethanol (Carlo Erba Reagents S.A.S., France) by repeated pipetting. Biofilm biomass was quantified by measuring the absorbance at 590 nm of each sample in an infinite M200 microplate reader (Tecan). The percentage of crystal violet staining was determined relative to the control after blank (0.25% (v/v) crystal violet in sterile Milli-Q water) correction.

[5] = system: S. aureus clinical isolate biofilms; test: Crystal violet binding assay, biofilm biomass, with global mass and density ratios; type: cell-based, Staphylococcus aureus
Description: as §1, §3
The mean emission fluorescence intensity of WGA integrated over a plane xy at a specific depth, z, If,WGA,xy, is proportional to the mass of polysaccharides in that plane.

WRRRYRRWRRRRRWRRRPRR-NH2 [vCPP2319]
self-assembly [1]: self-assemble into nanoparticles | metabolic activity of biofilm-embedded cells [2]: significant reduction | metabolic activity of biofilm-embedded cells [3]: significantly reduced | effect on biofilm biomass [4]: no significant changes | biofilm biomass reduction ([5]; 24 h-preformed biofilms, 4 h treatment, crystal violet, relative to untreated biofilm): approximately 30% | mi/mcontrol (global) eq 7 ([5]; fold variation relative to untreated biofilm, fraction of crystal violet absorbance retained): 0.7 | ρi/ρcontrol (global) eq 8 ([5]; fold variation relative to untreated biofilm, from crystal violet data and biofilm volume, for both agents fi assumed as for α-amylase alone): 1.2
